For test [1], the system named is 3T3-L1 adipocytes. The test can be described thus: Glucose uptake assay in 3T3-L1 adipocytes. It is filed as cell-based, mouse. Conditions: compounds at 40 µM, 48 h (Figure 11A(b)). As to the method:
Mouse 3T3-L1 preadipocyte cells were maintained in DMEM supplemented with 10% NBCS and 1% P/S at 37 °C in a humidified environment with 5% CO2, and then began starvation when the cells grew to 80% confluence (day 0). To facilitate differentiation to adipocytes, 2-days post-confluent cells were placed in 10% FBS DMEM supplemented with 1% P/S, 0.5 mM IBMX, 1 μM Dex, 1 μM Rosi and 100 nM insulin (day 2). For another three days (day 5), the medium was changed to high glucose DMEM containing 10% FBS, 1% P/S and 100 nM insulin for one day (day 6), and the 3T3-L1 preadipocytes were fully differentiated into mature adipocytes.
Next, differentiated 3T3-L1 adipocytes at a density of 5 × 10^4 cells/well were cultured with DMEM in 96-well plates and divided into the blank control group, model group, insulin group (100 ng/mL), berberine group (10 μg/mL) and compound groups (40 μM). […] After 24 and 48 h of culture, glucose uptake was initiated by the addition of […] medium and 190 μL glucose detection reagent to each well, reaction at 37 °C for 15 min, and the glucose uptake was measured according to the operating instructions of the glucose content determination kit. Following the glucose uptake test, cell viability was detected by CellTiter96® Aqueous One Solution Cell Proliferation Assay. […] Absorbance was measured at 490 nm and relative cell viability was calculated according to Equation (7). […]

Test [2] deals with pBR322 DNA. The test can be described thus: Prevention of AAPH-induced DNA oxidative damage. Conditions: AAPH 20 mM; p < 0.0001 vs model. As to the method: The effects of T. grandis methanolic extract, different fractions and its compounds 15, 19 and 23 on the prevention of DNA oxidative damage were carried out using the method of Han et al.. Initially, 8 μL pBR322 DNA (50 μg/mL) in PBS (0.1 M, pH 6.8) was mixed with different concentrations of T. grandis fractions and its compounds (12 μL) and incubated in water at 37 °C for 30 min. Then, 5 μL AAPH (20 mM) was added to the mixture and the reaction continued for 60 min. The control group used the same volume of PBS (0.1 M, pH 6.8) to replace AAPH. The pre-treated samples were mixed with 5 × DNA loading buffer, and the mixture (8 μL) was taken for 1.0% agarose gel electrophoresis for 25 min. After electrophoresis, the gels were stained with ethidium bromide for 20 min. Finally, images were taken using a DNA gel imaging system (ChampChemi 610, Beijing sage creation Co., Ltd. Beijing, China).

Test [3] is described as follows: Ferric reducing antioxidant power (FRAP) assay. As to conditions: compounds at 50 μM; Trolox equivalent. The method, then:
The FRAP assay was determined in accordance with the instructions for the FRAP kit. The total antioxidant activity values were estimated using the Trolox equivalent antioxidant capacity test. Initially, the detection concentration of methanolic extract and different fractions was 80 μg/mL, and the detection concentration of compounds (1–23) was 50 μM. Then, 190 μL of FRAP working reagent was mixed with 10 μL sample and incubated at room temperature for 20 min. The absorbance was then measured using a microplate reader at 593 nm, and the scavenging activity was calculated according to Equation (3). The blank control group used DMSO to replace the sample. […] The analysis was performed in triplicates, 0.8054, 0.0134 was a constant.

Test [4] deals with α-glucosidase. The test can be described thus: α-Glucosidase inhibition assay (pNPG). The test is classed as biochemical. The method, then:
The inhibitory effect on α-glucosidase was measured according to the previous report method with slight modifications. The 20 mM sample dissolved in DMSO was diluted to 50 μM in PBS, 10 μL sample was mixed with 50 μL of 0.1 μ/mL α-glucosidase solution in 0.1 M phosphate buffer (pH 6.5) in a 96-well microplate and 10 μL PBS was used as a blank control. The mixture was incubated at 37 °C for 10 min before adding 40 µL of 5 mM 4-nitrophenyl-α-D-glucopyranoside to each well. After 30 min of incubation at 37 °C, the reaction was terminated by adding 50 μL of 0.1 M Na2CO3 to this mixture. The released 4-nitrophenol absorbance measurements were carried out using a microplate reader (SpectraMax190, USA) at 405 nm.

For test [5], the system named is TNF-α. Put plainly: TNF-α secretion in LPS-stimulated RAW 264.7 macrophages (ELISA). It is filed as cell-based, mouse. Conditions: 40 µM, LPS 1 µg/mL, 48 h, vs model control (p < 0.01). The method, then:
(§1) In order to increase cytokine production, macrophages were treated with LPS at a final concentration of 1 µg/mL, and then with T. grandis compounds at 40 µM. The compounds were solubilized in DMEM medium containing 0.1% DMSO. Dexamethasone was employed as a positive control (5 µg/mL). A centrifuge was used to separate the supernatant from the cells after 48 h of incubation, with three replicates per group. Quantification of TNF-α, IL-1β and IL-6 secretion was achieved by following the ELISA manufacturer's instructions. Then, absorbance was measured at 450 nm. Relative TNF-α, IL-1β and IL-6 expression was calculated according to Equation (4). Following the inflammatory factor test, cell viability was detected by CellTiter96® Aqueous One Solution Cell Proliferation Assay. Then, 20 μL/well CellTiter96® Aqueous One Solution Cell Growth Assay reagent was added to the plate and incubated at 37 °C for 8 h, absorbance was measured at […] and relative cell viability was calculated according to Equation (5). Relative content of inflammatory cytokines (%) = (A1/A2)/A3 × 100%(4) where A1 is the concentrations value of inflammatory cytokines of each group, A2 is the relative cell viability of each group (model group is 100) and A3 is the concentration of inflammatory cytokines of model group. Cell viability rate (%) = B1/B2 × 100%(5) where B1 is the OD value of each fraction group or positive control group and B2 is the OD value of the model control.

For test [6], the system named is IL-1β. Put plainly: IL-1β secretion in LPS-stimulated RAW 264.7 macrophages (ELISA). The test is classed as cell-based, mouse. As to conditions: 40 µM, LPS 1 µg/mL, 48 h, vs model control (p < 0.0001). The method, then: as §1

The record followed here is publication PMC10044725, “Antioxidant, Anti-Inflammatory and Anti-Diabetic Activities of Tectona grandis Methanolic Extracts, Fractions, and Isolated Compounds” (Antioxidants, 2023).

Marks after values point to notes of the source that are not given here.

Consider `O=C(O)c1cc(O)c(O)c(O)c1` [Compound 23, gallic acid], for which the “effect on glucose uptake” value in test [1] was “significantly promote”. The “concentration at which a protective effect against DNA oxidative damage begins” value in test [2] was found to be 0.6 mM. In addition, in test [3], the “FRAP Assay” value is reported as 1.03 ± 0.01 ^a mmol Trolox/L. The “Inhibitory Rate (%)” value in test [4] (at a concentration of 50 µM) is reported as 21.89 ± 3.03 ^c %. The molecule also displayed an IC50 in test [4] (compounds) above 50 µM. In addition, the “effect on TNF-α inflammatory factor level” value in test [5] is reported as “could decrease”. Also, in test [6], the “effect on IL-1β inflammatory factor level” value is reported as “significant decrease”.

The IC50 is the point on the concentration scale where inhibition reaches its midpoint.
